Test results: patent US12257292B2, “Enhanced delivery of antioxidants for treatment of central nervous system disorders involving oxidative stress” (Beyond Barriers Therapeutics, Inc., priority 2017, dated 2025)

Experiments:
[1] = orally administered; cited from earlier work
glutathione in the brain = assay: Glutathione (GSH) levels in whole-brain homogenates by LC/MS after intranasal or oral NAC; type: in vivo, male Sprague-Dawley rats; details: for glutathione in the brain compared to vehicle control (IN PBS): 0.5 hours and 2 hours following administration
Protocol: (§1) In this example, a study was conducted to evaluate the pharmacokinetics of N-acetyl cysteine administered in an intranasal formulation. The study also evaluated the effectiveness on intranasally administered NAC to increase glutathione concentration in the brain.
(§2) C13-labelled N-acetyl L-cysteine (purchased from Cambridge Isotope Laboratories) was used to prepare formulations in phosphate-buffered saline (PBS) for the study. The subjects for the study were male Sprague-Dawley rats weighing approximately 250 grams, and 39 animals were separated into four groups, as shown in Table 1. The animals in the study groups were administered either an intranasal (IN) dose or an oral (PO) dose of N-acetyl cysteine via gavage, as shown in Table 1. Group 1 and group 2 were administered one 20 μl, intranasal injection. Group 3 was administered a single oral dose of 500 μL. Group 4 was administered two separate 10 μL intranasal injections (one per nostril).
The animals were fasted the night prior to the study and were anesthetized using a cocktail of ketamine/xylazine before administration of the study formulation. The rats were left on their sides for 15 minutes after administration of the study formulation. The animals were observed post administration, and at least once a day, more if deemed necessary, during the pre-treatment and treatment periods for mortality and morbidity. In particular, signs of ill health were based on body weight loss, change in appetite, and behavioral changes such as altered gait, lethargy and gross manifestations of stress.
(§3) Three animals from each Group were sacrificed at the established time points (0.5 hour, 1.0 hour and 2.0 hour), and whole brains from the sacrificed animals were collected for analysis. 3 animals from Group 3 were also sacrificed pre-dose and analyzed. The brain samples were stored at −80° C. freezer until sample analysis. Homogenates of the brain samples were prepared and analyzed, and glutathione (GSH) levels in the brain samples were measured by LC/MS.

[2] = tested on: blast induced mild traumatic brain injury; details: orally administered, cited from earlier work
[3] = parameters: species or system male Sprague-Dawley rats; details: rat, in vivo, 20 mg/kg
Protocol: as §1
as §2, with “nostril). […]” for “nostril).”
as §3, with “The brain samples were stored at −80° C. freezer until sample analysis.” left out

traumatic brain injury [4] = details: more than 20 preclinical studies; cited from earlier work
traumatic brain injury [5] = details: cited from earlier work

Molecule	adverse effects [1]	raising glutathione levels in the brain, intranasal compared with oral NAC (glutathione in the brain; intranasal 20 mg/kg vs oral (PO) 20 mg/kg, rat whole brain, FIG. 1)	increased GSH concentration in the brain, IN NAC vs IN PBS group (glutathione in the brain; intranasal 20 mg/kg, 2 hour point, p=0.033, Student's T-test, planned comparison)	glutathione in the brain compared to vehicle control (IN PBS) (glutathione in the brain; intranasal NAC 20 mg/kg)	glutathione in the brain compared to vehicle control (IN PBS) (glutathione in the brain; oral NAC 20 mg/kg)	severity and resolution of sequelae of blast induced mild traumatic brain injury ([2]; 81 active duty service members)	reducing the symptoms of mild-moderate traumatic brain injury in human patients [2]	concentration of isotope labeled NAC in brain tissue following administration [3]	outcome following traumatic brain injury (traumatic brain injury [4])	increase of the incidence of deep venous thrombosis of the lower limbs (traumatic brain injury [5]; in vivo)	number of patients with severe neurological dysfunction (GOS-E level 1-4) (traumatic brain injury [5]; large multi-center randomized controlled trial)
CC(=O)N[C@@H](CS)C(=O)O [NAC, N-acetylcysteine]	may cause nausea, vomiting and diarrhea	as effective as oral NAC	statistically significant	Clear trends for increased glutathione	Clear trends for increased glutathione	beneficial effects	effective	did not detect an increase	–	–	–
erythropoietin	–	–	–	–	–	–	–	–	improves outcome	did not	did not reduce
